Test results: the supplement of paper PMC4932681
Structures can show the parent of a compound that is named as a salt.

Key:
BT-474 [1] = assay: relative IC50 (midpoint of fitted logistic curve, plateau may be below 50% inhibition; CellTiter-Glo viability); higher = less potent; settings: 72 h
Outline: (§1)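 CellTiter-Glo viability was the readout, taken on a PHERAstar and normalised to vehicle-only and positive controls. It was measured after breast cancer cell lines and their resistant derivatives spent 72 h at 37 °C in 384-well plates containing library drugs at five concentrations spanning a 10 000-fold range, with 1 μM of the selecting drug in the medium of resistant lines. From logistic dose–response fits in the Breeze pipeline came drug sensitivity score, relative IC50 (curve midpoint) and top-dose inhibition.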

ZR-75-1 Tam2 [2] = assay: as above; settings: 4-OH-tamoxifen in medium 1 µM; 72 h
Outline: as §1

MCF-7 Tam1 [3] = assay: as above; settings: 4-OH-tamoxifen in medium 1 µM; 72 h
Outline: as §1

ZR-75-1 Tam1 [4] = assay: as above; settings: 4-OH-tamoxifen in medium 1 µM; 72 h
Outline: as §1

ZR-75-1 [5] = assay: as above; settings: 72 h
Outline: as §1

MCF-7 [6] = assay: as above; settings: 72 h
Outline: as §1

T-47D Tam2 [7] = assay: as above; settings: 4-OH-tamoxifen in medium 1 µM; 72 h
Outline: as §1

BT-474 Tam1 [8] = assay: as above; settings: 4-OH-tamoxifen in medium 1 µM; 72 h
Outline: as §1

T-47D Tam1 [9] = assay: as above; settings: 4-OH-tamoxifen in medium 1 µM; 72 h
Outline: as §1

T-47D [10] = assay: as above; settings: 72 h
Outline: as §1

BT-474 [11] = assay: drug sensitivity score (DSS) (DSS (dimensionless)); higher = more sensitive; extreme values may be limits of the assay; settings: 72 h
Outline: as §1

ZR-75-1 Tam2 [12] = assay: as above; settings: 4-OH-tamoxifen in medium 1 µM; 72 h
Outline: as §1

MCF-7 Tam1 [13] = assay: as above; settings: 4-OH-tamoxifen in medium 1 µM; 72 h
Outline: as §1

ZR-75-1 Tam1 [14] = assay: as above; settings: 4-OH-tamoxifen in medium 1 µM; 72 h
Outline: as §1

ZR-75-1 [15] = assay: as above; settings: 72 h
Outline: as §1

MCF-7 [16] = assay: as above; settings: 72 h
Outline: as §1

BT-474 Tam2 [17] = assay: as above; settings: 4-OH-tamoxifen in medium 1 µM; 72 h
Outline: as §1

T-47D Tam2 [18] = assay: as above; settings: 4-OH-tamoxifen in medium 1 µM; 72 h
Outline: as §1

BT-474 Tam1 [19] = assay: as above; settings: 4-OH-tamoxifen in medium 1 µM; 72 h
Outline: as §1

T-47D Tam1 [20] = assay: as above; settings: 4-OH-tamoxifen in medium 1 µM; 72 h
Outline: as §1

T-47D [21] = assay: as above; settings: 72 h
Outline: as §1

BT-474 Tam2 [22] = assay: relative IC50 (midpoint of fitted logistic curve, plateau may be below 50% inhibition; CellTiter-Glo viability); higher = less potent; settings: 4-OH-tamoxifen in medium 1 µM; 72 h
Outline: as §1

SMILES | relative IC50 (BT-474 [1]; 4-OH-tamoxifen in medium 0 µM) [nM] | relative IC50 (BT-474 [1]; 4-OH-tamoxifen in medium 1 µM) [nM] | relative IC50 (MCF-7 Tam1 [3]) [nM] | relative IC50 (MCF-7 [6]; 4-OH-tamoxifen in medium 0 µM) [nM] | relative IC50 (T-47D Tam2 [7]) [nM] | relative IC50 (BT-474 Tam1 [8]) [nM] | relative IC50 (T-47D Tam1 [9]) [nM] | relative IC50 (T-47D [10]; 4-OH-tamoxifen in medium 0 µM) [nM] | relative IC50 (T-47D [10]; 4-OH-tamoxifen in medium 1 µM) [nM] | relative IC50 (MCF-7 [6]; 4-OH-tamoxifen in medium 1 µM) [nM] | relative IC50 (BT-474 Tam2 [22]) [nM] | relative IC50 (ZR-75-1 Tam2 [2]) [nM] | relative IC50 (ZR-75-1 Tam1 [4]) [nM] | relative IC50 (ZR-75-1 [5]; 4-OH-tamoxifen in medium 0 µM) [nM] | relative IC50 (ZR-75-1 [5]; 4-OH-tamoxifen in medium 1 µM) [nM] | drug sensitivity score (BT-474 [11]; 4-OH-tamoxifen in medium 0 µM) | drug sensitivity score (BT-474 [11]; 4-OH-tamoxifen in medium 1 µM) | drug sensitivity score (ZR-75-1 Tam2 [12]) | drug sensitivity score (MCF-7 Tam1 [13]) | drug sensitivity score (ZR-75-1 Tam1 [14]) | drug sensitivity score (ZR-75-1 [15]; 4-OH-tamoxifen in medium 0 µM) | drug sensitivity score (ZR-75-1 [15]; 4-OH-tamoxifen in medium 1 µM) | drug sensitivity score (MCF-7 [16]; 4-OH-tamoxifen in medium 0 µM) | drug sensitivity score (MCF-7 [16]; 4-OH-tamoxifen in medium 1 µM) | drug sensitivity score (BT-474 Tam2 [17]) | drug sensitivity score (T-47D Tam2 [18]) | drug sensitivity score (BT-474 Tam1 [19]) | drug sensitivity score (T-47D Tam1 [20]) | drug sensitivity score (T-47D [21]; 4-OH-tamoxifen in medium 0 µM) | drug sensitivity score (T-47D [21]; 4-OH-tamoxifen in medium 1 µM)
CN1CCC(COc2cnc(-c3cccc(Cn4nc(-c5cccc(C#N)c5)ccc4=O)c3)nc2)CC1 | > 1000 | > 1000 | > 1000 | > 1000 | > 1000 | > 1000 | 314 | > 1000 | > 1000 |  |  | > 1000 | > 1000 | > 1000 | > 1000 | 0 | 0 | 0 | 0 | 0 | 0 | 0 | 0 | 0.0353 | 1.22 | 0 | 0 | 3.13 | 0 | 0
COc1ccc(S(=O)(=O)Nc2cccnc2Nc2ccc(O)cc2)cc1 [ABT-751] | 347 | 891 | > 10000 | 615 | 920 | 1350 | 1170 | > 10000 | > 10000 | 1490 | 992 |  | > 10000 | 412 |  | 6.81 | 9.13 | 1.41 | 0 | 0 | 5.44 | 0.184 | 6.87 | 4.14 | 6.39 | 4.48 | 6.57 | 6.4 | 0 | 0
Oc1ncnc2[nH]ncc12 [Allopurinol] | > 10000 |  | > 10000 | > 10000 | > 10000 | > 10000 | > 10000 | > 10000 | > 10000 | > 10000 |  | > 10000 |  | > 10000 | > 10000 | 0 | 2.18 | 0 | 0 | 0 | 0 | 0 | 0 | 0 | 0 | 0 | 0 | 0 | 0 | 0

Second part, led by results:

relative IC50 (BT-474 [1]; 4-OH-tamoxifen in medium 0 µM) [nM] | relative IC50 (BT-474 [1]; 4-OH-tamoxifen in medium 1 µM) [nM] | relative IC50 (MCF-7 Tam1 [3]) [nM] | relative IC50 (MCF-7 [6]; 4-OH-tamoxifen in medium 0 µM) [nM] | relative IC50 (T-47D Tam2 [7]) [nM] | relative IC50 (BT-474 Tam1 [8]) [nM] | relative IC50 (T-47D Tam1 [9]) [nM] | relative IC50 (T-47D [10]; 4-OH-tamoxifen in medium 0 µM) [nM] | relative IC50 (T-47D [10]; 4-OH-tamoxifen in medium 1 µM) [nM] | relative IC50 (MCF-7 [6]; 4-OH-tamoxifen in medium 1 µM) [nM] | relative IC50 (BT-474 Tam2 [22]) [nM] | SMILES | relative IC50 (ZR-75-1 Tam2 [2]) [nM] | relative IC50 (ZR-75-1 Tam1 [4]) [nM] | relative IC50 (ZR-75-1 [5]; 4-OH-tamoxifen in medium 0 µM) [nM] | relative IC50 (ZR-75-1 [5]; 4-OH-tamoxifen in medium 1 µM) [nM] | drug sensitivity score (BT-474 [11]; 4-OH-tamoxifen in medium 0 µM) | drug sensitivity score (BT-474 [11]; 4-OH-tamoxifen in medium 1 µM) | drug sensitivity score (ZR-75-1 Tam2 [12]) | drug sensitivity score (MCF-7 Tam1 [13]) | drug sensitivity score (ZR-75-1 Tam1 [14]) | drug sensitivity score (ZR-75-1 [15]; 4-OH-tamoxifen in medium 0 µM) | drug sensitivity score (ZR-75-1 [15]; 4-OH-tamoxifen in medium 1 µM) | drug sensitivity score (MCF-7 [16]; 4-OH-tamoxifen in medium 0 µM) | drug sensitivity score (MCF-7 [16]; 4-OH-tamoxifen in medium 1 µM) | drug sensitivity score (BT-474 Tam2 [17]) | drug sensitivity score (T-47D Tam2 [18]) | drug sensitivity score (BT-474 Tam1 [19]) | drug sensitivity score (T-47D Tam1 [20]) | drug sensitivity score (T-47D [21]; 4-OH-tamoxifen in medium 0 µM) | drug sensitivity score (T-47D [21]; 4-OH-tamoxifen in medium 1 µM)
> 10000 | 2920 | 6950 | 1790 | 2270 | 3560 | 1430 | 2340 | 2890 | 2360 | > 10000 | COc1cc(Nc2ncc(F)c(Nc3ccc4c(n3)N(COP(=O)(O)O)C(=O)C(C)(C)O4)n2)cc(OC)c1OC | 3160 |  | > 10000 |  | 0 | 2.25 | 1.42 | 1.04 | 1.22 | 0 | 0.307 | 2.7 | 4.99 | 0 | 3.3 | 2.63 | 4.15 | 2.65 | 1.95
> 10000 | 1040 | 3260 | 1410 | 1980 | 329 | 1560 |  |  | 2700 | 749 | Cc1cc(Nc2cc(CN3CCOCC3)c3nc(C)c(Cc4ccc(Cl)cc4F)n3n2)n[nH]1 |  | > 10000 | > 10000 | > 10000 | 0 | 7.73 | 0.848 | 2.42 | 0 | 0 | 0 | 6.61 | 4.32 | 12.8 | 3.58 | 16.2 | 3.55 | 1.41 | 1.86
2950 | 1130 | 4020 | 3140 | 1780 | 1580 | 1320 | 2480 | 3380 | 4010 | 1610 | COc1cc(Nc2c(C#N)cnc3cc(OCCCN4CCN(C)CC4)c(OC)cc23)c(Cl)cc1Cl [Bosutinib] | 3190 |  |  |  | 4.93 | 10.5 | 3.08 | 2.05 | 0.537 | 0.173 | 0.731 | 4.57 | 3.41 | 8.71 | 6.72 | 8.93 | 7.41 | 2.64 | 3.44
> 990000 | > 990000 | > 990000 | > 990000 | > 990000 |  | > 990000 | > 990000 | > 990000 | > 990000 |  | CCN(CC)CCCC(C)Nc1ccnc2cc(Cl)ccc12 (stereo not drawn) [Chloroquine] | > 990000 | > 990000 | > 990000 | > 990000 | 0 | 0 | 0 | 0 | 0 | 0 | 0 | 0 | 0 | 0.999 | 0 | 0.266 | 0 | 0 | 0
3340 | 2380 | 3200 |  | 3170 | 2800 | 1830 |  |  | 2360 | 1790 | CCN(CC)CCOc1ccc(C(=C(Cl)c2ccccc2)c2ccccc2)cc1 [Clomifene citrate] | 3330 |  |  | 3820 | 4.53 | 5.95 | 2.03 | 3.09 | 1.02 | 0.493 | 1.42 | 0 | 6.09 | 8.36 | 2.56 | 5.39 | 3.26 | 0.434 | 1.21
